Source: BindingDB's records for patent US20260022122 (Checkmate Therapeutics, 2026)

Molecular target: Nicotinamide phosphoribosyltransferase (Homo sapiens, UniProt P43490)
Assay: Measurement of NamPT Inhibitory Ability IC50
Experimental: To test the effect of the compound prepared in each Example on the substrate decomposition rate (Vmax/min) mediated by NamPT enzyme, IC50 was calculated. In this experiment, the NamPT colorimetric assay kit (ab221819) produced by Abcam was used, and Graph prism software was used for IC50 calculation. PRPP, ATP, NMNAT1, NamPT recombinant proteins, and various concentrations of the compound of each Example (half-log step dilution from 100 μM) were added to nicotinamide to synthesize nicotinamide adenine dinucleotide (NAD) from the nicotinamide, and a total of 60 μL of the reaction solution was reacted at room temperature for 1 hour. WST-1 formazan converted by NAD generated by adding WST-1 was measured. The result of the reaction was obtained by the following formula by measuring absorbance using EnVision2105 (PerkinElmer) at 450 nm for 60 minutes at 2-minute intervals.

Sequence of Nicotinamide phosphoribosyltransferase (P43490 whole entry): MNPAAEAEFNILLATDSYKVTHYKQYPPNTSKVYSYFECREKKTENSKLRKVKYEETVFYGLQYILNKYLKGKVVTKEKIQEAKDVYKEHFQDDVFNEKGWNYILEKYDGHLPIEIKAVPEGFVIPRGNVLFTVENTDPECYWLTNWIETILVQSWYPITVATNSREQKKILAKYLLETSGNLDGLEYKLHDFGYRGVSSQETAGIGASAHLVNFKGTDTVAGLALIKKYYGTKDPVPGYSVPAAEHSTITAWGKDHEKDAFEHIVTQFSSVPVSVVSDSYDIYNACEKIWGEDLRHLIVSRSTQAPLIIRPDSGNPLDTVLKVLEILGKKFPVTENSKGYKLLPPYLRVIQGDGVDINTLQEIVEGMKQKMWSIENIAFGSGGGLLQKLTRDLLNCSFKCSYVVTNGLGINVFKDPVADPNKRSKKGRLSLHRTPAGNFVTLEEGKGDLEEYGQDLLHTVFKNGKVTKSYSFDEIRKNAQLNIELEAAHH

Row | Structure (SMILES) | IC50
1 | CC(C)c1ccc2nc(-c3ccc(CNC(=O)c4cnc5nccn5c4)cc3)oc2c1 | < 50 nM
2 | CS(=O)(=O)Nc1ccc2oc(-c3ccc(CNC(=O)c4cnc5nccn5c4)cc3)nc2c1 [US20260022122, Example 47] | < 50 nM
3 | Cc1ccc2sc(-c3ccc(CNC(=O)c4cnc5nccn5c4)cc3)nc2c1 [US20260022122, Example 48] | < 50 nM
